Consider nine molecules from patent US20220125876A1, “A METHOD OF IMMUNE MODULATION BY MODULATING ABCF1” (Pacific Myco Biosciences, Ltd., priority 2019, published 2022).

Entries after “also recorded” stand apart in the source; their conditions may differ.

Assay [1] deals with bone marrow derived macrophages (BMDM). The experiment in a line: Immunoblotting of BMDM lysates for protein expression and phosphorylation. Type of assay: cell-based, mouse. As for the experimental part: Western blotting: Cell lysates were prepared as described above. All co-immunoprecipitation samples were prepared without DTT in the sample buffer, unless otherwise mentioned. All other western blot samples were prepared with DTT in the sample buffer. Lysates were electrophoresed and immunoblotted with indicated antibodies.
Cytoplasmic and Nuclear fractionation: Bone marrow macrophages were stimulated with mentioned treatments and cytoplasmic and nuclear fractionation was performed with NE-PER Nuclear and Cytoplasmic Extraction Reagents (Thermo Scientific; 78833) according to manufacturer's instructions.
Cell lysates were prepared as described above. All co-immunoprecipitation samples were prepared without DTT in the sample buffer, unless otherwise mentioned. All other western blot samples were prepared with DTT in the sample buffer. Lysates were electrophoresed and immunoblotted with indicated antibodies.
Bone marrow macrophages were stimulated with indicated treatments and cytoplasmic and nuclear fractionation was performed with NE-PER Nuclear and Cytoplasmic Extraction Reagents (Thermo Scientific; 78833) according to manufacturer's instructions.
For orientation: Immunoblotting shows a protein as a band on a membrane.

The target of assay [2] is T1, ubiquitin (Homo sapiens, UniProt P0CG48).
T1 construct: recombinant ABCF1, UBA1, and Ub proteins were incubated in the presence of cofactors; purchased abcam ab139467; host or cells: ubiquitin and E1 from the kit; ABCF1 immunoprecipitated from transfected mouse BMDM
The experiment in a line: In vitro ubiquitination assay. Type of assay: biochemical, mouse. As to conditions: with UBA1 (E1), Mg2+ and ATP, DTT sensitive. As for the experimental part: In vitro ubiquitination Assay: Abcf1WT and Abcf1C647S expression plasmids were overexpressed in macrophages as described above. Before overexpressing Abcf1C647S expression plasmid, cells were treated with Abcf1 siRNA, as described above to eliminate endogenous Abcf1 levels. Abcf1 siRNA treated cells were washed with cold PBS twice and then Abcf1C647S expression plasmid was overexpressed. Cell lysates were prepared and subjected to co-immunoprecipitation with anti ABCF1 antibody. Extend of overexpression and co-immunoprecipitation was checked by western blot. Ubiquitination Assay was performed on immunoprecipitated samples with Ubiquitylation Assay Kit (abcam; ab139467) according to manufacturer's instructions. Samples were run on a gel and blotted with anti ABCF1 and anti UB antibodies.
To confirm the finding, enzyme activity of ABCF1 was investigated in presence and absence of cofactor Mg^2+ and ATP via an in vitro ubiquitination assay. […] As thio-ester bonds mediate ubiquitin attachment to the E2 enzyme and are DTT sensitive, no such protein band was observed when samples were treated with DTT.
To confirm if the conserved cysteine at position 647 in the ABCF1 sequence is the catalytic cysteine that mediates the E2 function, in vitro ubiquitination assay was performed with Abcf1 WT and Abcf1 C647S (where the cysteine was mutated to a serine) protein constructs. […]

In assay [3] the test system is ABCF1. Put plainly: Polyubiquitination state of ABCF1 in BMDM (immunoprecipitation with anti-ABCF1, immunoblot with anti-polyubiquitin antibodies). It is filed as cell-based, mouse.
Assay [4] has as its system ABCF1. As to conditions: cited from earlier work.
Setting [5] is: BMDMs treated with recombinant cytokine for 24 hours (TNFα 10 ng/ml, IL-1β 10 ng/ml, IL-10 50 ng/ml, IFNβ 10,000 IU/50 μl).
Where [6] appears, read: induction of hypoxia, CoCl2 100 μM for 24 hours.
Setting [7] is: LPS (100 ng/ml) 30 min, SM 100 nM, Dynasore 80 μM.

Regarding TNFα, the ABCF1 expression entry in assay [1] (setting [5]) was “decreased”.
For “recombinant ABCF1: recombinant ABCF1 protein used in the in vitro ubiquitination assay”, the “mass / apparent molecular weight shift of ABCF1 (Ub thioester attachment)” value in assay [2] was “increase in mass size; also recorded: increase in the apparent molecular weight”.
Consider `[Cl][Co][Cl]` [CoCl2, Cobalt Chloride], for which, in assay [1] (setting [6]), the ABCF1 expression result is listed as “decreased” and the HIF-1α expression entry was “increased”.
As for `O=C(N/N=C/c1ccc(O)c(O)c1)c1cc2ccccc2cc1O` [Dynasore], the “polyubiquitin linkage of ABCF1” value in assay [3] (Dynasore treatment alone) is “led to K48-polyubiquitination”. Besides, in assay [3] (setting [7]), the “K48-polyubiquitination of ABCF1” value is given as “targeted for K48-polyubiquitination; also recorded: extensively upregulated” and the “K63-polyubiquitination of ABCF1” value is “no K63-polyubiquitination was observed; also recorded: greatly reduced”.
As for `CN[C@@H](C)C(=O)N[C@H](C(=O)N1CCC[C@H]1Cn1nnnc1Sc1ccccc1)C(C)OCC#CC#CCO[C@H](C)[C@H](NC(=O)[C@H](C)NC)C(=O)N1CCCC1Cn1nnnc1Sc1ccccc1` (stereo partly shown) [SM], the “K63-polyubiquitination of ABCF1” value in assay [3] (setting [7]) is recorded as “increased”. Besides, the “polyubiquitin linkage of ABCF1” value in assay [3] (LPS treatment for 10 minutes) is reported as “K63-polyubiquitination of ABCF1 instead”.
With `CN(C)CCC[C@@]1(c2ccc(F)cc2)OCc2cc(C#N)ccc21` [Escitalopram], the “effect on ABCF1 pathway” value in assay [4] was “known enhancer of the ABCF1 pathway”.

B1: IFNβ: recombinant IFNβ (10,000 IU/50 μl) used to treat BMDMs (protein, UniProt P01575 22-182, looked up)
Interferon beta: INYKQLQLQERTNIRKCQELLEQLNGKINLTYRADFKIPMEMTEKMQKSYTAFAIQEMLQNVFLVFRNNFSSTGWNETIVVRLLDELHQQTVFLKTVLEEKQEERLTWEMSSTALHLKSYYWRVQRYLKLMKYNSYAWMVVRAEIFRNFLIIRRLTRNFQN
Regarding B1, in assay [1] (setting [5]), the ABCF1 expression result is “increased”.

B2: IL-1β: recombinant IL-1β (10 ng/ml) used to treat BMDMs (protein, UniProt P10749 118-269, looked up)
Interleukin-1 beta: VPIRQLHYRLRDEQQKSLVLSDPYELKALHLNGQNINQQVIFSMSFVQGEPSNDKIPVALGLKGKNLYLSCVMKDGTPTLQLESVDPKQYPKKKMEKRFVFNKIEVKSKVEFESAEFPNWYISTSQAEHKPVFLGNNSGQDIIDFTMESVSS
Consider B2, for which the ABCF1 expression entry in assay [1] (setting [5]) is recorded as “decreased”.

B3: IL-10: recombinant IL-10 (50 ng/ml) used to treat BMDMs (protein, UniProt P18893 19-178, looked up)
Interleukin-10: SRGQYSREDNNCTHFPVGQSHMLLELRTAFSQVKTFFQTKDQLDNILLTDSLMQDFKGYLGCQALSEMIQFYLVEVMPQAEKHGPEIKEHLNSLGEKLKTLRMRLRRCHRFLPCENKSKAVEQVKSDFNKLQDQGVYKAMNEFDIFINCIEAYMMIKMKS
Take B3: the ABCF1 expression entry in assay [1] (setting [5]) is “increased”.
